Patent US20130102619A1, “2-PYRIDYLOXY-4-NITRILE OREXIN RECEPTOR ANTAGONISTS” (priority 2011, published 2013)

Legend:
human orexin-2 receptor [1] = molecular target: T1, human orexin-2 receptor (Homo sapiens (Human), UniProt O43614); experiment: radioligand binding assay, orexin-2 receptor (membranes from CHO cells); conditions: CHO cell membranes, read-out: hOX2 hKi
Procedure: (§1) The utility of the compounds in accordance with the present invention as orexin receptor OX1R and/or OX2R antagonists may be readily determined without undue experimentation by methodology well known in the art, including the “FLIPR Ca^2+ Flux Assay” (Okumura et al., Biochem. Biophys. Res. Comm. 280:976-981, 2001). In a typical experiment the OX1 and OX2 receptor antagonistic activity of the compounds of the present invention was determined in accordance with the following experimental method. For intracellular calcium measurements, Chinese hamster ovary (CHO) cells expressing the rat orexin-1 receptor or the human orexin-2 receptor, are grown in Iscove's modified DMEM containing 2 mM L-glutamine, […], 1% hypoxanthine-thymidine supplement, 100 U/ml penicillin, 100 ug/ml streptomycin and 10% heat-inactivated fetal calf serum (FCS). The cells are seeded at 20,000 cells/well into Becton-Dickinson black 384-well clear bottom sterile plates coated with poly-D-lysine. All reagents were from GIBCO-Invitrogen Corp. The seeded plates are incubated overnight at 37° C. and 5% CO2. Ala-6,12 human orexin-A as the agonist is prepared as a 1 mM stock solution in 1% bovine serum albumin (BSA) and diluted in assay buffer (HBSS containing 20 mM HEPES, 0.1% BSA and 2.5 mM probenecid, pH7.4) for use in the assay at a final concentration of 70 pM. Test compounds are prepared as 10 mM stock solution in DMSO, then diluted in 384-well plates, first in DMSO, then assay buffer. On the day of the assay, cells are washed 3 times with 100 ul assay buffer and then incubated for 60 min (37° C., 5% CO2) in 60 ul assay buffer containing 1 uM Fluo-4AM ester, 0.02% pluronic acid, and 1% BSA. The dye loading solution is then aspirated and cells are washed 3 times with 100 ul assay buffer. 30 ul of that same buffer is left in each well. Within the Fluorescent Imaging Plate Reader (FLIPR, Molecular Devices), test compounds are added to the plate in a volume of 25 ul, incubated for 5 min and finally 25 ul of agonist is added. Fluorescence is measured for each well at 1 second intervals for 5 minutes and the height of each fluorescence peak is compared to the height of the fluorescence peak induced by 70 pM Ala-6,12 orexin-A with buffer in place of antagonist. […] Alternatively, compound potency can be assessed by a radioligand binding assay (described in Bergman et. al. Bioorg. Med. Chem. Lett. 2008, 18, 1425-1430) in which the inhibition constant (Ki) is determined in membranes prepared from CHO cells expressing either the OX1 or OX2 receptor. The intrinsic orexin receptor antagonist activity of a compound which may be used in the present invention may be determined by these assays.

OX1 receptor (hOX1) = OX1 receptor (hOX1) (Homo sapiens, UniProt O43613); experiment: radioligand binding assay, orexin-1 receptor (membranes from CHO cells); conditions: CHO cell membranes, read-out: hOX1 hKi
Procedure: In a typical experiment the OX1 and OX2 receptor antagonistic activity of the compounds of the present invention was determined in accordance with the following experimental method. For intracellular calcium measurements, Chinese hamster ovary (CHO) cells expressing the rat orexin-1 receptor or the human orexin-2 receptor, are grown in Iscove's modified DMEM containing 2 mM L-glutamine, […], 1% hypoxanthine-thymidine supplement, 100 U/ml penicillin, 100 ug/ml streptomycin and 10% heat-inactivated fetal calf serum (FCS). The cells are seeded at 20,000 cells/well into Becton-Dickinson black 384-well clear bottom sterile plates coated with poly-D-lysine. All reagents were from GIBCO-Invitrogen Corp. The seeded plates are incubated overnight at 37° C. and 5% CO2. Ala-6,12 human orexin-A as the agonist is prepared as a 1 mM stock solution in 1% bovine serum albumin (BSA) and diluted in assay buffer (HBSS containing 20 mM HEPES, 0.1% BSA and 2.5 mM probenecid, pH7.4) for use in the assay at a final concentration of 70 pM. Test compounds are prepared as 10 mM stock solution in DMSO, then diluted in 384-well plates, first in DMSO, then assay buffer. On the day of the assay, cells are washed 3 times with 100 ul assay buffer and then incubated for 60 min (37° C., 5% CO2) in 60 ul assay buffer containing 1 uM Fluo-4AM ester, 0.02% pluronic acid, and 1% BSA. The dye loading solution is then aspirated and cells are washed 3 times with 100 ul assay buffer. 30 ul of that same buffer is left in each well. Within the Fluorescent Imaging Plate Reader (FLIPR, Molecular Devices), test compounds are added to the plate in a volume of 25 ul, incubated for 5 min and finally 25 ul of agonist is added. Fluorescence is measured for each well at 1 second intervals for 5 minutes and the height of each fluorescence peak is compared to the height of the fluorescence peak induced by 70 pM Ala-6,12 orexin-A with buffer in place of antagonist. […] Alternatively, compound potency can be assessed by a radioligand binding assay (described in Bergman et. al. Bioorg. Med. Chem. Lett. 2008, 18, 1425-1430) in which the inhibition constant (Ki) is determined in membranes prepared from CHO cells expressing either the OX1 or OX2 receptor. The intrinsic orexin receptor antagonist activity of a compound which may be used in the present invention may be determined by these assays.

human orexin-2 receptor [2] = molecular target: T1, human orexin-2 receptor; experiment: FLIPR Ca2+ Flux Assay, CHO cells expressing human orexin-2 receptor; format: cell-based; conditions: 70 pM Ala-6,12 orexin-A agonist, read-out: hOX2R FLIPR IC50
Procedure: as §1

rat orexin-1 receptor = rat orexin-1 receptor (Rattus norvegicus (Rat), UniProt P56718); experiment: FLIPR Ca2+ Flux Assay, CHO cells expressing rat orexin-1 receptor; format: cell-based; conditions: 70 pM Ala-6,12 orexin-A agonist, read-out: hOX1R FLIPR IC50;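 further: concentration giving 50% inhibition of the agonist-induced calcium response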
Chain of rat orexin-1 receptor (P56718 whole entry): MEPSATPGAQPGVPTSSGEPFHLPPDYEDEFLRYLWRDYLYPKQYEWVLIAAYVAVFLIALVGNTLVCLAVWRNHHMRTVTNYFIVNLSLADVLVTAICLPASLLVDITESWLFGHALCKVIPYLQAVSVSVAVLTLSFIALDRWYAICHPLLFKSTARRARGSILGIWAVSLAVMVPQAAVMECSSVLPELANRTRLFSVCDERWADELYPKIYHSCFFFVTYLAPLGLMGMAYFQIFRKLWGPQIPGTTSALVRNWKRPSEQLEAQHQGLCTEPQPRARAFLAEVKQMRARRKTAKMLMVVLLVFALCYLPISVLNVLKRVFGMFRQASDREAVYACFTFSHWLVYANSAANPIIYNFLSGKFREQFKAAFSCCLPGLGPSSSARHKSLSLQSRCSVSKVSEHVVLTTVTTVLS
Procedure: as §1

T1 sequence (O43614 whole entry): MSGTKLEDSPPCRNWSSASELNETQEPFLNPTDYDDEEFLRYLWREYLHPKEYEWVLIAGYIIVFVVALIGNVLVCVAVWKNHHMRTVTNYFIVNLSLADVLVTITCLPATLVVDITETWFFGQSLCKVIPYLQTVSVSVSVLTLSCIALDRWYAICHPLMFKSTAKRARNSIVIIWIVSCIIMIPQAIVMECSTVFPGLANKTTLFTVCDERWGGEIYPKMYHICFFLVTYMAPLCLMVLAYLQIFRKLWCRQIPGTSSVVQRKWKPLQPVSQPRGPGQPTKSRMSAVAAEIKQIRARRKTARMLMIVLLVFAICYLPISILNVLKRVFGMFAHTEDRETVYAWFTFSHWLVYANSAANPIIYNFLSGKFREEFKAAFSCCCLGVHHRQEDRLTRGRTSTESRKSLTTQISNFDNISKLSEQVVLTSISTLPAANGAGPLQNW

With `C[C@@H]1CC[C@@H](Oc2cc(C#N)ccn2)CN1C(=O)c1ccc(F)cc1-n1nccn1` [Example 8, 2-{[(3R,6R)-1-{[4-fluoro-2-(2H-1,2,3-triazol-2-yl)phenyl]carbonyl}-6-methylpiperidin-3-yl]oxy}pyridine-4-carbonitrile] the Ki (human orexin-2 receptor [1]) was 3.5 nM, the Ki (OX1 receptor (hOX1)) was 2910 nM and the IC50 (human orexin-2 receptor [2]) was 29 nM. For the same compound, the IC50 (rat orexin-1 receptor) was > 10000 nM.
In the case of `Cc1ccc(C(=O)N2C[C@H](Oc3cc(C#N)ccn3)CC[C@H]2C)c(-n2nccn2)c1` [Example 9, 2-{[(3R,6R)-6-methyl-1-{[4-methyl-2-(2H-1,2,3-triazol-2-yl)phenyl]carbonyl}piperidin-3-yl]oxy}pyridine-4-carbonitrile], the Ki (human orexin-2 receptor [1]) is reported as 3.7 nM, the Ki (OX1 receptor (hOX1)) is reported as 1250 nM and the IC50 (human orexin-2 receptor [2]) is reported as 22 nM. It also gave an IC50 (rat orexin-1 receptor) of 7150 nM.
`C[C@@H]1CC[C@@H](Oc2cc(C#N)ccn2)CN1C(=O)c1ccsc1-n1nccn1` [Example 10, 2-{[(3R,6R)-6-methyl-1-{[2-(2H-1,2,3-triazol-2-yl)thiophen-3-yl]carbonyl}piperidin-3-yl]oxy}pyridine-4-carbonitrile] showed a Ki (human orexin-2 receptor [1]) of 5.9 nM, a Ki (OX1 receptor (hOX1)) of 3570 nM and an IC50 (human orexin-2 receptor [2]) of 29 nM. For the same compound, the IC50 (rat orexin-1 receptor) was > 10000 nM.
`C[C@@H]1CC[C@@H](Oc2cc(C#N)ccn2)CN1C(=O)c1sccc1-n1nccn1` [Example 14, 2-{[(3R,6R)-6-methyl-1-{[3-(2H-1,2,3-triazol-2-yl)thiophen-2-yl]carbonyl}piperidin-3-yl]oxy}pyridine-4-carbonitrile] was tested, and the Ki (human orexin-2 receptor [1]) was 15 nM, the Ki (OX1 receptor (hOX1)) was 5340 nM and the IC50 (human orexin-2 receptor [2]) was 65 nM. The IC50 (rat orexin-1 receptor) was > 10000 nM.
Work on `C[C@@H]1CC[C@@H](Oc2cc(C#N)ccn2)CN1C(=O)c1cc(Br)ccc1-n1nccn1` [Example 15, 2-{[(3R,6R)-1-{[5-bromo-2-(2H-1,2,3-triazol-2-yl)phenyl]carbonyl}-6-methylpiperidin-3-yl]oxy}pyridine-4-carbonitrile] yielded a Ki (human orexin-2 receptor [1]) of 9.1 nM, a Ki (OX1 receptor (hOX1)) of 265 nM and an IC50 (human orexin-2 receptor [2]) of 62 nM. The IC50 (rat orexin-1 receptor) was 1040 nM.
`COc1ccc(C(=O)N2C[C@H](Oc3cc(C#N)ccn3)CC[C@H]2C)c(-n2nccn2)n1` [Example 17, 2-{[(3R,6R)-1-{[6-methoxy-2-(2H-1,2,3-triazol-2-yl)pyridin-3-yl]carbonyl}-6-methylpiperidin-3-yl]oxy}pyridine-4-carbonitrile] showed a Ki (human orexin-2 receptor [1]) of 15 nM, a Ki (OX1 receptor (hOX1)) of 5640 nM and an IC50 (human orexin-2 receptor [2]) of 82 nM. For the same compound, the IC50 (rat orexin-1 receptor) was > 10000 nM.
`COc1ccc(C(=O)N2C[C@H](Oc3cc(C#N)ccn3)CC[C@H]2C)c(C2CC2)n1` [Example 20, 2-({(3R,6R)-1-[(2-cyclopropyl-6-methoxypyridin-3-yl)carbonyl]-6-methylpiperidin-3-yl}oxy)pyridine-4-carbonitrile] gave a Ki (human orexin-2 receptor [1]) of 11.5 nM, a Ki (OX1 receptor (hOX1)) of 12600 nM and an IC50 (human orexin-2 receptor [2]) of 67 nM. The IC50 (rat orexin-1 receptor) was > 10000 nM.
With `C[C@@H]1CC[C@@H](Oc2cc(C#N)ccn2)CN1C(=O)c1c(F)cccc1-n1nccn1` [Example 22, 2-{[(3R,6R)-1-{[2-fluoro-6-(2H-1,2,3-triazol-2-yl)phenyl]carbonyl}-6-methylpipeidin-3-yl]oxy}pyridine-4-carbonitrile] the Ki (human orexin-2 receptor [1]) was 3.4 nM, the Ki (OX1 receptor (hOX1)) was 1790 nM and the IC50 (human orexin-2 receptor [2]) was 23 nM. For the same compound, the IC50 (rat orexin-1 receptor) was 5750 nM.
Compound `C[C@@H]1CC[C@@H](Oc2cc(C#N)ccn2)CN1C(=O)c1ccc(Cl)cc1-n1nccn1` [Example 29, 2-{[(3R,6R)-1-{[4-chloro-2-(2H-1,2,3-triazol-2-yl)phenyl]carbonyl}-6-methylpiperidin-3-yl]oxy}pyridine-4-carbonitrile] has a Ki (human orexin-2 receptor [1]) of 1.3 nM, a Ki (OX1 receptor (hOX1)) of 1100 nM and an IC50 (human orexin-2 receptor [2]) of 12 nM. The IC50 (rat orexin-1 receptor) was 3400 nM.
`C[C@@H]1CC[C@@H](Oc2cc(C#N)ccn2)CN1C(=O)c1sccc1-c1ncccn1` [Example 31] gave a Ki (human orexin-2 receptor [1]) of 5.9 nM, a Ki (OX1 receptor (hOX1)) of 2720 nM and an IC50 (human orexin-2 receptor [2]) of 38 nM. The IC50 (rat orexin-1 receptor) was > 10000 nM.
`C[C@@H]1CC[C@@H](Oc2cc(C#N)ccn2)CN1C(=O)c1cccc(F)c1-c1ncccn1` [Example 33, 2-({(3R,6R)-1-[(3-fluoro-2-pyrimidin-2-ylphenyl)carbonyl]-6-methylpiperidin-3-yl}oxy)pyridine-4-carbonitrile] showed a Ki (human orexin-2 receptor [1]) of 12.4 nM, a Ki (OX1 receptor (hOX1)) of 1690 nM and an IC50 (human orexin-2 receptor [2]) of 52 nM. For the same compound, the IC50 (rat orexin-1 receptor) was > 10000 nM.
Work on `C[C@@H]1CC[C@@H](Oc2cc(C#N)ccn2)CN1C(=O)c1ccc(F)cc1-c1ncccn1` [Example 34, 2-({(3R,6R)-1-[(4-fluoro-2-pyrimidin-2-ylphenyl)carbonyl]-6-methylpiperidin-3-yl}oxy)pyridine-4-carbonitrile] yielded a Ki (human orexin-2 receptor [1]) of 3.5 nM, a Ki (OX1 receptor (hOX1)) of 868 nM and an IC50 (human orexin-2 receptor [2]) of 48 nM. The IC50 (rat orexin-1 receptor) was > 10000 nM.
Compound `C[C@@H]1CC[C@@H](Oc2cc(C#N)ccn2)CN1C(=O)c1cc(F)ccc1-c1ncccn1` [Example 35, 2-({(3R,6R)-1-[(5-fluoro-2-pyrimidin-2-ylphenyl)carbonyl]-6-methylpiperidin-3-yl}oxy)pyridine-4-carbonitrile] has a Ki (human orexin-2 receptor [1]) of 1 nM, a Ki (OX1 receptor (hOX1)) of 658 nM and an IC50 (human orexin-2 receptor [2]) of 31 nM. For the same compound, the IC50 (rat orexin-1 receptor) was 8040 nM.
`C[C@@H]1CC[C@@H](Oc2cc(C#N)ccn2)CN1C(=O)c1c(F)cccc1-c1ncccn1` [Example 36, 2-({(3R,6R)-1-[(2-fluoro-6-pyimidin-2-ylphenyl)carbonl]-6-methylpiperidin-3-yl}oxy)pyridine-4-carbonitrile] gave a Ki (human orexin-2 receptor [1]) of 2.1 nM, a Ki (OX1 receptor (hOX1)) of 930 nM and an IC50 (human orexin-2 receptor [2]) of 47 nM. For the same compound, the IC50 (rat orexin-1 receptor) was > 10000 nM.
